The structures appear in SMILES notation. Structures can show the parent of a compound that is named as a salt.

For orientation: melting point means the temperature of the solid-liquid transition. Turning to `CCc1nc2c(N)nc3ccccc3c2n1CC#Cc1ccc(OC)cc1` [Example 7, 2-Ethyl-1-[3-(4-methoxyphenyl)-2-propynyl]-1H-imidazo[4,5-c]quinolin-4-amine], the melting point lay within 179 to 181 °C. The figure for `CCc1nc2c(N)nc3ccccc3c2n1CCCC#Cc1cccc(C(F)(F)F)c1` [Example 16, 2-Ethyl-1-[5-(3-trifluoromethylphenyl)-4-pentynyl]-1H-imidazo[4,5-c]quinolin-4-amine] is 178 to 181 °C; for `CCc1nc2c(N)nc3ccccc3c2n1CC#Cc1cnccn1` (as salt: hydroiodid) [Example 5, 2-Ethyl-1-[3-(pyrazin-2-yl)-2-propynyl]-1H-imidazo[4,5-c]quinolin-4-amine] it is 180 to 225 °C (dec.). The figure for `CCOC(=O)c1ccc(C#CCn2c(CC)nc3c(N)nc4ccccc4c32)cc1` [Example 6, Ethyl 4-[3-(4-Amino-2-ethyl-1H-imidazo[4,5-c]quinolin-1-yl)-1-propynyl]benzoate] is 221 to 222 °C (dec.). Next, `CCc1nc2c(N)nc3ccccc3c2n1CC#Cc1ccc([N+](=O)[O-])cc1` [Example 10, 2-Ethyl-1-[3-(4-nitrophenyl)-2-propynyl]-1H-imidazo[4,5-c]quinolin-4-amine]: 190 to 206 °C; `CCc1nc2c(N)nc3ccccc3c2n1CCC/C=C/c1cccnc1` [Example 17, (E)-2-Ethyl-1-[5-(pyridin-3-yl)-4-pentenyl]-1H-imidazo[4,5-c]quinolin-4-amine]: 188 to 190 °C; `CCc1nc2c(N)nc3ccccc3c2n1CC#Cc1ccccc1C(F)(F)F` [Example 9, 2-Ethyl-1-[3-(2-trifluoromethylphenyl)-2-propynyl]-1H-imidazo[4,5-c]quinolin-4-amine]: 234 to 235 °C (dec.).

Turning to `CCc1nc2c(N)nc3ccccc3c2n1CC#Cc1cccc([N+](=O)[O-])c1` [Example 11, 2-Ethyl-1-[3-(3-nitrophenyl)-2-propynyl]-1H-imidazo[4,5-c]quinolin-4-amine], the melting point was in the range of 224 to 243 °C. The figure for `CCc1nc2c(N)nc3ccccc3c2n1CCC/C=C/c1ccc(OC)cc1` [Example 18, (E)-2-Ethyl-1-[5-(4-methoxyphenyl)-4-pentenyl]-1H-imidazo[4,5-c]quinolin-4-amine] is 179 to 180 °C; for `CCc1nc2c(N)nc3ccccc3c2n1CC#Cc1ccccc1` (as salt: hydroiodid) [Example 4, 2-Ethyl-1-(3-phenyl-2-propynyl)-1H-imidazo[4,5-c]quinolin-4-amine] it is 200 to 212 °C (dec.); for `CCc1nc2c(N)nc3ccccc3c2n1CCCC#Cc1cccnc1` [Example 13] it is 188 to 192 °C.

In the case of `CCc1nc2c(N)nc3ccccc3c2n1CC#Cc1cccs1` (as salt: hydroiodid) [Example 2, 2-Ethyl-1-[3-(thien-2-yl)-2-propynyl]-1H-imidazo[4,5-c]quinolin-4-amine], the melting point lay within 185 to 205 °C.

`CCc1nc2c(N)nc3ccccc3c2n1CCCC#Cc1ccc(OC)cc1` (as salt: hydroiodid) [Example 14, 2-Ethyl-1-[5-(4-methoxyphenyl)-4-pentynyl]-1H-imidazo[4,5-c]quinolin-4-amine]: the melting point is 230 °C. In the case of `CCc1nc2c(N)nc3ccccc3c2n1CCCC#Cc1cccs1` [Example 12, 2-Ethyl-1-[5-(thien-2-yl)-4-pentynyl]-1H-imidazo[4,5-c]quinolin-4-amine], the melting point is 175 to 190 °C (dec.). The figure for `CCc1nc2c(N)nc3ccccc3c2n1CCCC#Cc1ccccc1` [Example 15, 2-Ethyl-1-(5-phenyl-4-pentynyl)-1H-imidazo[4,5-c]quinolin-4-amine] is 199 to 202 °C; for `CCc1nc2c(N)nc3ccccc3c2n1CC#Cc1cccc(C(F)(F)F)c1` [Example 8, 2-Ethyl-1-[3-(3-trifluoromethylphenyl)-2-propynyl]-1H-imidazo[4,5-c]quinolin-4-amine] it is 202.5 to 203.5 °C; for `CCc1nc2c(N)nc3ccccc3c2n1CC#Cc1cccnc1` (as salt: hydroiodid) [Example 1, 2-Ethyl-1-[3-(pyridin-3-yl)-2-propynyl]-1H-imidazo[4,5-c]quinolin-4-amine] it is 249 to 251 °C (dec.).

Source of the values: patent US8802853B2, “Arylalkenyl and arylalkynyl substituted imidazoquinolines” (3M Innovative Properties Company, priority 2003, dated 2014).
